Source: patent US20200339544A1 (JOINT STOCK COMPANY "BIOCAD", priority 2017, published 2020)
Where two headings read alike, the source gives them in different places.

Key:
[1] = General cytotoxicity on HepG2 cells; type: cell-based; details: human; general cytotoxicity, HepG2 cells, 72 hours, average of several tests
Summary of the method: (§1)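 HepG2 cells seeded at 2*10^4 cells per well and compounds added in DMEM with 2% FBS for 72 h at 37 °C. Viability read with Alamar Blue and CC50 derived as for IC50. Therapeutic index taken as HepG2 CC50 over H1975 IC50.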

HepG2 cells = assay: General cytotoxicity on HepG2 cells; type: cell-based; details: therapeutic index, CC50 HepG2 / IC50 H1975
Summary of the method: as §1

[2] = Chemical stability in simulated intestinal fluid (SIF); type: physicochemical; details: SIF without enzymes, pH 6.5; 10 μm; 2 hours at 37° C.; substance amount remaining
Method: (§2) 1) Determination of chemical stability in simulated intestinal fluid, simulated gastric fluid and human blood plasma.
(§3) SGF concentrate without enzymes, pH=1,4 (Sigma Ireland, cat #01651) was used as simulated gastric fluid. Initial candidate solution (10 mM in DMSO) was diluted with a SGF working solution to a concentration of 10 μm (test solution). The test solution was incubated in a dry block thermostat for 2 hours at 37° C. SIF concentrate without enzymes, pH=6.5 (Sigma Ireland, cat #55331) was used as simulated intestinal fluid. Initial candidate solution (10 mM in DMSO) was diluted with a SIF working solution to a concentration of 10 μm (test solution). The test solution was incubated in a dry block thermostat for 2 hours at 37° C. HPLC with Agilent 1200 liquid chromatography system (Agilent, USA) was employed to determine peak areas of the compounds in test samples, said peak areas corresponding to the initial test time (prior to incubation) and the final test time (after incubation in a dry block thermostat for 2 hours at 37° C.). We used gradient elution (1 mL/min flow rate). Substance amount in % in a sample after thermostatting was determined.
(§4) The stability of the compounds was estimated.

[3] = tested on: H1975 (lung adenocarcinoma, DM, L828R/T790M); assay: Antiproliferative activity on H1975 cells (Alamar Blue); type: cell-based; details: for IC50: Homo sapiens, NCI-H1975, H1975 cells; for SI IC50(A549)/IC50(DM): selectivity index, A549 vs H1975 cells
Summary of the method: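 H1975 cells (15*10^3/well) attached 16-18 h in RPMI-1640 with 2% FBS, then exposed to compounds (≤1% DMSO final) for 72 h at 37 °C. Viability by Alamar Blue fluorescence (Ex 540/Em 590 nm) after 3-5 h; IC50 from four-parameter logistic fit.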

[4] = Chemical stability in simulated gastric fluid (SGF); type: physicochemical; details: SGF without enzymes, pH 1,4; 10 μm; 2 hours at 37° C.; substance amount remaining
Method: as §2, §3, §4

[5] = tested on: HCC827 (lung adenocarcinoma, SM, exon19delE746-A750); assay: Antiproliferative activity on HCC827 cells (Alamar Blue); type: cell-based; details: Homo sapiens, antiproliferative test
Method: Antiproliferative activity of EGFR inhibitors (Tables 15 and 16) was measured in cell-based bioassay on continuous epithelial cell cultures: A549 (lung adenocarcinoma, ATCC® CRM-CCL-185™—WT), HCC827 (lung adenocarcinoma, ATCC® CRL-2868™—SM (SingleMutantEGFR, exon19delE746-A750)) and H1975 (lung adenocarcinoma, ATCC® CRL-5908™—DM (DoubleMutantEGFR, L828R/T790M)) using cell viability reagent Alamar Blue (ThermoFisher, # DAL1100). Cells were cultured in 10% FBS-supplemented (Gibco, #16140071) RPMI-1640 (PanEco, S330p) for at least 1 passage after thawing, washed with PBS and passaged in 96-well culture plates (3599, Corning) with RPMI-1640 growth medium supplemented with 2% FBS in an amount of 5*10^3 cells/well for A549, 10*10^3 cells/well for HCC827 and 15*10^3 cells/well for H1975 in 100 μL, and incubated at 37° C. in an incubator (Thermo Forma, USA) under 5% of CO2 for 16-18 h for cell attachment.
The test compounds were dissolved in DMSO in the selected range of concentrations and transferred to RPMI-1640 medium (PanEco, S330p) supplemented with 2% FBS. After adding 50 μl of the prepared dilutions to the cells, the incubation mixture contained the final concentrations of the test substances and no more than 1% DMSO. The plates were Incubated at 37° C. for 72 h. After incubation, 15 μl of Alamar Blue vital dye (ThermoFisher, # DAL1100) was added to each well. The plates were shaken on an orbital shaker (Biosan, Latvia) and further incubated for 3-5 h in a CO2 incubator (Thermo Forma, USA). Number of living cells was estimated using a plate spectrophotometer Infinite M200Pro, (Tecan, Switzerland) measuring fluorescent signal at the excitation wavelength (λEx) of 540 nm and emission wavelength (λEm) of 590 nm.
IC50 was calculated using Magellan 7.2 software (Tecan, Switzerland) approximating experimental points by four-parameter logistic model with the optimization by Levenberg-Marquardt.

WT EGFR (Wild-Type EGFR) = biological target: T1, WT EGFR (Wild-Type EGFR) (Homo sapiens, UniProt P00533); assay: Inhibition of WT EGFR kinase activity (ADP-Glo); type: biochemical
T1 construct: purchased SignalChem
Summary of the method: (§5)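 Recombinant WT or double-mutant EGFR was incubated with a solution of 0.5 mg/mL peptide substrate and 50 μM ATP for 180 minutes at 37° C. Kinase activity was detected by ADP-Glo luminescence. IC50 values came from a four-parameter logistic fit.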

[6] = biological target: T2, DM EGFR (DoubleMutantEGFR, L828R/T790M) (Homo sapiens, UniProt P00533, L858R/T790M); assay: Inhibition of DM EGFR kinase activity (ADP-Glo); type: biochemical; details: for IC50: inhibition of kinase activity, EGFR DM (L828R/T790M); for SI, IC50(WT)/IC50(DM): selectivity index, kinase EGFR WT vs EGFR DM
T2 construct: purchased SignalChem
Summary of the method: as §5

[7] = tested on: A549 (lung adenocarcinoma, WT); assay: Antiproliferative activity on A549 cells (Alamar Blue); type: cell-based; details: Homo sapiens, antiproliferative test
Summary of the method: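 Cells seeded at 5*10^3/well in RPMI-1640 with 2% FBS, attached 16-18 h at 37° C, then exposed to compounds (≤1% DMSO) for 72 h. Alamar Blue added for 3-5 h; fluorescence read at 540/590 nm. IC50 from four-parameter logistic fit.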

[8] = Chemical stability in human blood plasma; type: in vitro ADME; details: pooled human blood plasma; 10 μm; 4 hours at 37° C.; substance amount remaining
Summary of the method: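 Pooled plasma from ten healthy donors was spiked to 10 μM from a 10 mM DMSO stock and held 4 h at 37 °C. After acetonitrile protein precipitation, HPLC peak areas before and after incubation gave the percentage of compound remaining.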

[9] = Enzyme stability in human liver S9 fractions; type: in vitro ADME; details: 0.5 mg/mL pooled human liver S9 fractions; 10 μM compound; 37° C.; pH 7.4; read-out: Stability in liver S9 fractions, Clint
Summary of the method: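 Compound at 10 μM was incubated at 37 °C with 0.5 mg/mL pooled human liver S9, 2 mM β-NAD and 4 mM MgCl2 in 0.1 M sodium phosphate, pH 7.4, then quenched with acetonitrile and analysed chromatographically. T½ and CLint were derived from the slope of log peak area versus time.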

[10] = average values obtained in several tests, Table 16, read-out: H1975 (DM) IC50
[11] = antiproliferative test, Table 15, read-out: IC50 H1975 (DM)

Compound	Stability in SIF, % [2]	IC50 [3, 10]	IC50 [3, 11]	Stability in SGF, % [4]	IC50 [5]	IC50 (WT EGFR (Wild-Type EGFR))	IC50 [6]	SI, IC50(WT)/IC50(DM) [6]	IC50 [7]	Stability in blood plasma, % [8]	Intrinsic clearance in human liver S9 fractions at 10 µM [9]	CC50 at 72 h [1]	TI, CC50/IC50 (HepG2 cells)	SI IC50(A549)/IC50(DM) [3]
C=CC(=O)Nc1cc(Nc2cc(C(=O)c3ccc(N4CCOCC4)cc3)ccn2)c(OC)cc1N(C)CCN(C)C.O=C(O)C(F)(F)F [EGFR_3365_5, N-(2-((2-(dimethylamino)ethyl)(methyl)amino)-4-methoxy-5-((4-(4-morpholinobenzoyl)pyridin-2-yl)amino)phenyl)acrylamide 2,2,2-trifluoroacetate]	89.8%	0.0573 µM	0.0573 µM	100.0%	0.0286 µM	0.464 µM	0.022 µM	21.03	7.59 µM			17.7 µM	309	132.56
C=CC(=O)Nc1cc(Nc2cc(C(=O)c3ccc(C)cc3)ccn2)c(OC)cc1N(C)CCN(C)C [EGFR_3365_57, N-(2-((2-(dimethylamino)ethyl)(methyl)amino)-4-methoxy-5-((4-(4-methylbenzoyl)pyridin-2-yl)amino)phenyl)acrylamide]	96.6%	0.0694 µM	0.0694 µM	100.0%	0.00564 µM	0.0497 µM	0.00624 µM	7.96	8.64 µM			22.8 µM	328	124
C=CC(=O)Nc1cc(Nc2nccc(C(=O)c3ccc(OC(C)C)cc3OC(C)C)n2)c(OC)cc1N(C)CCN(C)C [EGFR_3365_71, N-(5-((4-(2,4-diisopropoxybenzoyl)pyrimidin-2-yl)amino)-2-((2-(dimethylamino)ethyl)(methyl)amino)-4-methoxyphenyl)acrylamide]	100.0%			100.0%						100.0%				
C=CC(=O)Nc1cc(Nc2nccc(C(=O)c3ccc(OCC(C)C)cc3)n2)c(OC)cc1N(C)CCN(C)C [EGFR_3365_78, N-(2-((2-(dimethylamino)ethyl)(methyl)amino)-5-((4-(4-isobutoxybenzoyl)pyrimidin-2-yl)amino)-4-methoxyphenyl) acrylamide]	91.1%			91.1%						81.7%				
C=CC(=O)Nc1cc(Nc2nccc(C(=O)c3ccc(-n4ccnc4)cc3)n2)c(OC)cc1N(C)CCN(C)C [EGFR_3365_86, N-(5-((4-(4-(1H-imidazol-1-yl)benzoyl)pyrimidin-2-yl)amino)-2-((2-(dimethylamino)ethyl) (methyl)amino)-4-methoxyphenyl)acrylamide]	99.4%			99.7%						100.0%				

The next lines start with results.

Stability in SIF, % [2]	IC50 [3, 10]	IC50 [3, 11]	Stability in SGF, % [4]	IC50 [5]	IC50 (WT EGFR (Wild-Type EGFR))	IC50 [6]	SI, IC50(WT)/IC50(DM) [6]	IC50 [7]	Stability in blood plasma, % [8]	Intrinsic clearance in human liver S9 fractions at 10 µM [9]	Compound	CC50 at 72 h [1]	TI, CC50/IC50 (HepG2 cells)	SI IC50(A549)/IC50(DM) [3]
100.0%	0.351 µM	0.351 µM	100.0%	0.0062 µM	0.17 µM	0.00644 µM	26.43	12.4 µM	85.4%		C=CC(=O)Nc1cc(Nc2nccc(C(=O)c3cccc(F)c3)n2)c(OC)cc1N(C)CCN(C)C [EGFR_3365_11, N-(2-((2-(dimethylamino)ethyl)(methyl)amino)-5-((4-(3-fluorobenzoyl)pyrimidin-2-yl)amino)-4-methoxyphenyl) acrylamide]	15 µM	43	35.37
100.0%	0.0308 µM	0.0308 µM	98.9%	0.0103 µM	0.113 µM	0.0181 µM	6.22	4.48 µM	82.4%		C=CC(=O)Nc1cc(Nc2nccc(C(=O)c3ccc(Br)cc3)n2)c(OC)cc1N(C)CCN(C)C [EGFR_3365_13, N-(5-((4-(4-bromobenzoyl)pyrimidin-2-yl)amino)-2-((2-(dimethylamino)ethyl) (methyl)amino)-4-methoxyphenyl)acrylamide]	14.1 µM	460	145.63
100.0%	0.184 µM	0.184 µM	100.0%		0.36 µM	0.0189 µM	19.05	73.9 µM	98.5%		C=CC(=O)Nc1cc(Nc2nccc(C(=O)c3ccccc3[N+](=O)[O-])n2)c(OC)cc1N(C)CCN(C)C [EGFR_3365_36, N-(2-((2-(dimethylamino)ethyl)(methyl)amino)-4-methoxy-5-((4-(2-nitrobenzoyl)pyrimidin-2-yl)amino)phenyl)acrylamide]	36.5 µM	199	402.37
100.0%			100.0%						87.2%	16.6 µL/min/mg	C=CC(=O)Nc1cc(Nc2nccc(C(=O)c3ccc(C)cc3)n2)c(OC)cc1N(C)CCN(C)C [EGFR_3365_64, N-(2-((2-(dimethylamino)ethyl)(methyl)amino)-4-methoxy-5-((4-(4-methylbenzoyl)pyrimidin-2-yl)amino)phenyl)acrylamide]			
